# Measured values as given in PubChem BioAssay AID1963983 (Molecular Pharmacology Branch, DTP, NCI, 2024).
# System: 186277-243-T-J2-PDC multi-cell spheroid viability
# Assay: Anticancer human tumor 186277-243-T-J2-PDC patient-derived colon adenocarcinoma cell line growth inhibition [PI3K]
# Conditions: for viability, T/C: stronger effect = lower value
# Excerpt: Combinatorial screen of targeted agents with the PI3K inhibitors inavolisib, alpelisib, duvelisib, and copanlisib in multi-cell type tumor spheroids
# A high-throughput screen of multi-cell type tumor spheroids was designed to identify active combinations of targeted small molecules and PI3K pathway inhibitors. Complex spheroids include a stromal component modeled by human endothelial cells (HUVEC) and fibroblasts modeled by human mesenchymal stem cells (MSCs). The concentration ranges selected for each drug and investigational agent were based upon clinically achievable concentrations if the clinical Cmax of the agent was known.
# Compounds. The drugs and investigational agents: inavolisib (NSC800729), alpelisib (NSC765974), duvelisib (NSC772469), copanlisib (NSC816437), ipatasertib (NSC767898), afuresertib (NSC778305), talazoparib (NSC767125), sapanisertib (NSC764658), selumetinib (NSC741078), tovorafenib (DAY101, NSC766906), vemurafenib (NSC761431), ravoxertinib (NSC781343), sotorasib (NSC818433), MRTX1133 (NSC 836407), abemaciclib (NSC 768073), palbociclib (NSC758247), venetoclax (NSC 766270), SY5609 (NSC837396), enzalutamide (NSC755605), and darolutamide (NSC825331), were obtained from the National Cancer Institute (NCI) Developmental Therapeutics Program Chemical Repository. The FDA-approved anticancer drug set is available from the NCI Developmental Therapeutics Program. […] The stock solutions were prepared in dimethyl sulfoxide (DMSO, Sigma-Aldrich, St. Louis, MO, cat. D2650) at 800-fold the tested concentration and stored at -70 degrees C prior to their use. All drugs and investigational agents were tested over a range starting from a high concentration at or near the clinical Cmax and decreasing in half-log increments. If the clinical Cmax for an agent had not been determined, the highest concentration tested was 10 microM.
# Cell Culture. All cells were maintained in an incubator at 37 degrees C and 5% CO2 with 95% humidity. The PDC lines were cultured according to standard operating procedures established by the NCI PDMR (https://pdmr.cancer.gov/sops/default.htm). All PDCs were thawed and cultured in Matrigel-coated flasks prepared with a working solution of 1X Ham's F-12 nutrient mix, without supplementation (Invitrogen, Waltham, MA, cat. 11765054), 100 U/mL penicillin-streptomycin (Invitrogen, cat. 15140122), and 2.5% Matrigel (Corning Inc., Corning, NY, cat. 354248) for the first three passages. The 354836-022-R-J1-PDC, 475296-252-R-J1-PDC, and 997726-040-R-J2-PDC lines were cultured in 6A media, which includes advanced DMEM/F-12 (Thermo Fisher Scientific, cat. 12634028), 10 mM HEPES (Thermo Fisher Scientific, cat. 15630080), 1X GlutaMAX supplement (Thermo Fisher Scientific, cat. 35050061), 0.1 mg/mL primocin (InvivoGen, San Diego, CA, cat. ant-pm-2), 10% defined fetal bovine serum, heat inactivated (HyClone Laboratories Inc., Logan, UT, cat. SH30070.03HI), 50% L-WRN conditioned media (ATCC, cat. CRL-3276), 1.25 mM N-Acetyl-L-cysteine (Sigma-Aldrich, cat. A9165), 10 mM nicotinamide (Sigma-Aldrich, cat. N0636), 1X B-27 supplement (Thermo Fisher Scientific, cat. 17504044), 1X N-2 supplement (Thermo Fisher Scientific, cat. 17502048), and 10 microM Y-27632 dihydrochloride (Tocris Bioscience, Bristol, United Kingdom, cat. 1254). The 624824-186-R-J2-PDC line was cultured in 6C/Colon 1B media, which includes all 6A media components plus 50 ng/mL human EGF recombinant protein (Thermo Fisher Scientific, cat. PHG0311). […]
# [1] = curve of first compound, second compound 0.0316 µM
# [2] = curve of first compound, second compound 0.1 µM
# [3] = curve of first compound, second compound 0.316 µM
# [4] = curve of first compound, second compound 1 µM
# [5] = second compound 0.0316 µM, first compound 0.0316 µM
# [6] = second compound 0.0316 µM, first compound 0.1 µM
# [7] = second compound 0.0316 µM, first compound 0.316 µM
# [8] = second compound 0.0316 µM, first compound 1 µM
# [9] = second compound 0.0316 µM, first compound 3.16 µM
# [10] = second compound 0.0316 µM, first compound 10 µM
# [11] = second compound 0.1 µM, first compound 0.0316 µM
# [12] = second compound 0.1 µM, first compound 0.1 µM
# [13] = second compound 0.1 µM, first compound 0.316 µM
# [14] = second compound 0.1 µM, first compound 1 µM
# [15] = second compound 0.1 µM, first compound 3.16 µM
# [16] = second compound 0.1 µM, first compound 10 µM
# [17] = second compound 0.316 µM, first compound 0.0316 µM
# [18] = second compound 0.316 µM, first compound 0.1 µM
# [19] = second compound 0.316 µM, first compound 0.316 µM
# [20] = second compound 0.316 µM, first compound 1 µM
# [21] = second compound 0.316 µM, first compound 3.16 µM
# [22] = second compound 0.316 µM, first compound 10 µM
# [23] = second compound 1 µM, first compound 0.0316 µM
# [24] = second compound 1 µM, first compound 0.1 µM
# [25] = second compound 1 µM, first compound 0.316 µM
# [26] = second compound 1 µM, first compound 1 µM
# [27] = second compound 1 µM, first compound 3.16 µM
# [28] = second compound 1 µM, first compound 10 µM
# [29] = curve of first compound, second compound 3.16 µM
# [30] = curve of first compound, second compound 10 µM
# [31] = second compound 3.16 µM, first compound 0.0316 µM
# [32] = second compound 3.16 µM, first compound 0.1 µM
# [33] = second compound 3.16 µM, first compound 0.316 µM
# [34] = second compound 3.16 µM, first compound 1 µM
# [35] = second compound 3.16 µM, first compound 3.16 µM
# [36] = second compound 3.16 µM, first compound 10 µM
# [37] = second compound 10 µM, first compound 0.0316 µM
# [38] = second compound 10 µM, first compound 0.1 µM
# [39] = second compound 10 µM, first compound 0.316 µM
# [40] = second compound 10 µM, first compound 1 µM
# [41] = second compound 10 µM, first compound 3.16 µM
# [42] = second compound 10 µM, first compound 10 µM
# 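Further: spheroids exposed to compounds for seven days before viability reading.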
# 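Wherever viability, T/C is given: 100% = DMSO vehicle control viability.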
smiles,measurement,setting,value
C=CC(=O)N1CCN(c2nc(=O)n(-c3c(C)ccnc3C(C)C)c3nc(-c4c(O)cccc4F)c(F)cc23)C(C)C1 (stereo unspecified) + COc1c(OCCCN2CCOCC2)ccc2c3n(c(=NC(=O)c4cnc(N)nc4)nc12)CCN3,IC50,"curve of first compound, second compound 0.00316 µM",> 10000 nM
same,IC50,"curve of first compound, second compound 0.01 µM",> 10000 nM
same,IC50,[1],1870 nM
same,IC50,[2],< 31.6 nM
same,IC50,[3],< 31.6 nM
same,IC50,[4],< 31.6 nM
same,"viability, T/C","second compound 0.00316 µM, first compound 0.0316 µM",102%
same,"viability, T/C","second compound 0.00316 µM, first compound 0.1 µM",88.7%
same,"viability, T/C","second compound 0.00316 µM, first compound 0.316 µM",88.1%
same,"viability, T/C","second compound 0.00316 µM, first compound 1 µM",88.1%
same,"viability, T/C","second compound 0.00316 µM, first compound 3.16 µM",93.2%
same,"viability, T/C","second compound 0.00316 µM, first compound 10 µM",73%
same,"viability, T/C","second compound 0.01 µM, first compound 0.0316 µM",93.1%
same,"viability, T/C","second compound 0.01 µM, first compound 0.1 µM",88.2%
same,"viability, T/C","second compound 0.01 µM, first compound 0.316 µM",94.4%
same,"viability, T/C","second compound 0.01 µM, first compound 1 µM",93.6%
same,"viability, T/C","second compound 0.01 µM, first compound 3.16 µM",87.8%
same,"viability, T/C","second compound 0.01 µM, first compound 10 µM",62.3%
same,"viability, T/C",[5],59.7%
same,"viability, T/C",[6],67.1%
same,"viability, T/C",[7],57.5%
same,"viability, T/C",[8],52.6%
same,"viability, T/C",[9],47.8%
same,"viability, T/C",[10],31.2%
same,"viability, T/C",[11],18.3%
same,"viability, T/C",[12],18.1%
same,"viability, T/C",[13],14.9%
same,"viability, T/C",[14],12.3%
same,"viability, T/C",[15],11.1%
same,"viability, T/C",[16],10.9%
same,"viability, T/C",[17],6.24%
same,"viability, T/C",[18],4.28%
same,"viability, T/C",[19],3.7%
same,"viability, T/C",[20],4.23%
same,"viability, T/C",[21],7.04%
same,"viability, T/C",[22],4.1%
same,"viability, T/C",[23],1.93%
same,"viability, T/C",[24],4.05%
same,"viability, T/C",[25],1.66%
same,"viability, T/C",[26],2.03%
same,"viability, T/C",[27],2.92%
same,"viability, T/C",[28],2.49%
CC1(C)CCC(CN2CCN(c3ccc(C(=O)NS(=O)(=O)c4ccc(NCC5CCOCC5)c([N+](=O)[O-])c4)c(Oc4cnc5[nH]ccc5c4)c3)CC2)=C(c2ccc(Cl)cc2)C1,"viability, T/C",compound 0.0316 µM,98% [middle of 4 runs]
same,"viability, T/C",compound 0.1 µM,105% [middle of 4 runs]
same,"viability, T/C",compound 0.316 µM,100% [middle of 4 runs]
same,"viability, T/C",compound 1 µM,97.9% [middle of 4 runs]
CCCS(=O)(=O)Nc1ccc(F)c(C(=O)c2c[nH]c3ncc(-c4ccc(Cl)cc4)cc23)c1F + Cc1nc(NC(=O)N2CCCC2C(N)=O)sc1-c1ccnc(C(C)(C)C(F)(F)F)c1,IC50,[1],5420 nM
same,IC50,[2],5410 nM
same,IC50,[3],4750 nM
same,IC50,[4],4850 nM
same,IC50,[29],4260 nM
same,IC50,[30],< 31.6 nM
same,"viability, T/C",[5],88.2%
same,"viability, T/C",[6],76.7%
same,"viability, T/C",[7],88.5%
same,"viability, T/C",[8],89.2%
same,"viability, T/C",[9],89%
same,"viability, T/C",[10],8.5%
same,"viability, T/C",[11],98.1%
same,"viability, T/C",[12],105%
same,"viability, T/C",[13],89.6%
same,"viability, T/C",[14],94.9%
same,"viability, T/C",[15],87.2%
same,"viability, T/C",[16],7.3%
same,"viability, T/C",[17],113%
same,"viability, T/C",[18],103%
same,"viability, T/C",[19],89.2%
same,"viability, T/C",[20],88%
same,"viability, T/C",[21],78.7%
same,"viability, T/C",[22],7.15%
same,"viability, T/C",[23],95.8%
same,"viability, T/C",[24],104%
same,"viability, T/C",[25],98.5%
same,"viability, T/C",[26],91.9%
same,"viability, T/C",[27],76.5%
same,"viability, T/C",[28],6.14%
same,"viability, T/C",[31],67.6%
same,"viability, T/C",[32],81.6%
same,"viability, T/C",[33],81.1%
same,"viability, T/C",[34],82%
same,"viability, T/C",[35],65.6%
same,"viability, T/C",[36],5.53%
same,"viability, T/C",[37],15.2%
same,"viability, T/C",[38],17.1%
same,"viability, T/C",[39],26.6%
same,"viability, T/C",[40],35.3%
same,"viability, T/C",[41],38.8%
same,"viability, T/C",[42],2.29%
Cn1ncnc1[C@H]1c2n[nH]c(=O)c3cc(F)cc(c23)N[C@@H]1c1ccc(F)cc1,"viability, T/C",compound 0.000316 µM,97.7% [middle of 4 runs]
same,"viability, T/C",compound 0.001 µM,94.7% [middle of 4 runs]
same,"viability, T/C",compound 0.00316 µM,97.8% [middle of 4 runs]
same,"viability, T/C",compound 0.01 µM,93% [middle of 4 runs]
same,"viability, T/C",compound 0.1 µM,93.6% [middle of 4 runs]
same,IC50,curve of compound,> 100 nM
Cn1nccc1Nc1nccc(-c2ccn(C(CO)c3ccc(Cl)c(F)c3)c(=O)c2)n1 (stereo unspecified) + Cc1nc(NC(=O)N2CCCC2C(N)=O)sc1-c1ccnc(C(C)(C)C(F)(F)F)c1,IC50,[1],1840 nM
same,IC50,[2],1190 nM
same,IC50,[3],670 nM
same,IC50,[4],152 nM
same,IC50,[29],< 31.6 nM
same,IC50,[30],< 31.6 nM
same,"viability, T/C",[5],89%
same,"viability, T/C",[6],104%
same,"viability, T/C",[7],117%
same,"viability, T/C",[8],71.3%
same,"viability, T/C",[9],34.2%
same,"viability, T/C",[10],18.5%
same,"viability, T/C",[11],91.8%
same,"viability, T/C",[12],108%
same,"viability, T/C",[13],99.5%
same,"viability, T/C",[14],53.8%
same,"viability, T/C",[15],30.9%
same,"viability, T/C",[16],22.5%
same,"viability, T/C",[17],105%
same,"viability, T/C",[18],100%
same,"viability, T/C",[19],76.2%
same,"viability, T/C",[20],34.8%
same,"viability, T/C",[21],20.5%
same,"viability, T/C",[22],9.74%
same,"viability, T/C",[23],94.9%
same,"viability, T/C",[24],61.1%
same,"viability, T/C",[25],30.9%
same,"viability, T/C",[26],13.9%
same,"viability, T/C",[27],14%
same,"viability, T/C",[28],6.14%
same,"viability, T/C",[31],47.4%
same,"viability, T/C",[32],29.6%
same,"viability, T/C",[33],15%
same,"viability, T/C",[34],5.96%
same,"viability, T/C",[35],8.12%
same,"viability, T/C",[36],2.21%
same,"viability, T/C",[37],9.88%
same,"viability, T/C",[38],9.03%
same,"viability, T/C",[39],8.27%
same,"viability, T/C",[40],8.15%
same,"viability, T/C",[41],1.39%
same,"viability, T/C",[42],2.02%
